What was measured:
MDA-MB-231 [1] = assay: Cytotoxicity against human MDA-MB-231 cells incubated for 48 hrs by MTT assay; format: functional, cell-based; settings: MDA-MB-231, 48 h
Tubulin (Homo sapiens) = Tubulin (Homo sapiens) (UniProt P68371+Q9H4B7+P0DPH7+P68366+Q13509+Q71U36+P04350+Q3ZCM7+P07437+P68363+Q9BQE3+Q6PEY2+Q13885+Q9BVA1+Q9BUF5); assay: Inhibition of tubulin polymerization (unknown origin) at 3 uM incubated for 1 hr by fluorescence assay relative to control; format: protein-complex assay
PANC-1 = assay: Cytotoxicity against human PANC1 cells incubated for 24 hrs by MTT assay; format: functional, cell-based; settings: PANC-1, 24 h
Capan-2 = assay: Cytotoxicity against human Capan2 cells incubated for 24 hrs by MTT assay; format: functional, cell-based; settings: Capan-2, 24 h
MIA PaCa-2 = assay: Cytotoxicity against human MIAPaCa2 cells incubated for 24 hrs by MTT assay; format: functional, cell-based; settings: MIA PaCa-2, 24 h
CFPAC-1 = assay: Cytotoxicity against human CFPAC-1 cells incubated for 24 hrs by MTT assay; format: functional, cell-based; settings: CFPAC-1, 24 h
NIH3T3 [2] = assay: Anti-invasive activity against mouse NIH/3T3 cells transfected with human AdoMetDC cDNA in antisense orientation assessed as inhibition of cell invasion at 100 ng/ml incubated for 1 weeks by matrigel-based microscopic analysis relative to control; format: functional; settings: NIH3T3, 168 h
MDA-MB-231 [3] = assay: Anti-invasive activity against human MDA-MB-231 cells at 30 nM by crystal violet staining based Boyden chamber assay relative to control; format: functional
NIH3T3 [4] = assay: Anti-invasive activity against mouse NIH/3T3 cells transfected with human AdoMetDC cDNA in sense orientation assessed as inhibition of cell invasion at 100 ng/ml incubated for 1 weeks by matrigel-based microscopic analysis relative to control; format: functional; settings: NIH3T3, 168 h
[5] = molecular target: Proto-oncogene tyrosine-protein kinase Src (Homo sapiens, UniProt P12931); assay: Inhibition of SRC (unknown origin) by Z'-LYTE assay
HT-29 = assay: Cytotoxicity against human HT-29 cells incubated for 72 hrs by MTT assay; format: functional; settings: HT-29, 72 h
Jurkat = assay: Cytotoxicity against human Jurkat cells incubated for 72 hrs by MTT assay; format: functional
Histone deacetylase 1 = Histone deacetylase 1 (Homo sapiens, UniProt Q13547); assay: Inhibition of HDAC1 (unknown origin) using Ac-peptide as substrate pretreated for 15 mins followed by substrate addition and measured after 60 mins by fluorescence assay
[6] = Cytotoxicity against mouse DLA cells incubated for 48 hrs by LDH release assay; format: functional, cell-based
[7] = Cytotoxicity against mouse DLA cells incubated for 48 hrs by MTT assay; format: functional, cell-based
[8] = Cytotoxicity against mouse DLA cells incubated for 48 hrs by trypan blue dye based assay; format: functional, cell-based
[9] = molecular target: Hepatocyte growth factor activator serine protease (Homo sapiens, UniProt Q04756); assay: Inhibition of recombinant HGFA serine protease domain (unknown origin) preincubated for 30 mins followed by Boc-QLR-AMC substrate addition by fluorescence assay
[10] = molecular target: Suppressor of tumorigenicity 14 protein (Homo sapiens, UniProt Q9Y5Y6); assay: Inhibition of recombinant human matriptase preincubated for 30 mins followed by Boc-QLR-AMC substrate addition by fluorescence assay
Serine protease hepsin = Serine protease hepsin (Homo sapiens, UniProt P05981); assay: Inhibition of recombinant human hepsin preincubated for 30 mins followed by Boc-QLR-AMC substrate addition by fluorescence assay
Prothrombin = Prothrombin (Homo sapiens, UniProt P00734); assay: Inhibition of recombinant thrombin (unknown origin) preincubated for 30 mins followed by chromogenic substrate addition by fluorescence assay
Coagulation factor X = Coagulation factor X (Homo sapiens, UniProt P00742); assay: Inhibition of recombinant factor 10a (unknown origin) preincubated for 30 mins followed by chromogenic substrate addition by fluorescence assay
L1210 = assay: Growth inhibition of mouse L1210 cells by MTS assay; format: functional, cell-based
[11] = molecular target: Epidermal growth factor receptor (Homo sapiens) (UniProt P00533); assay: Inhibition of EGFR (unknown origin) at 10 uM by immunoassay relative to control
HepG2 = assay: Cytotoxicity against human HepG2 cells incubated for 48 hrs by MTT assay; format: functional, cell-based; settings: HepG2, 48 h
B16 = assay: Cytotoxicity against mouse B16 cells incubated for 48 hrs by MTT assay; format: functional, cell-based; settings: B16, 48 h
4T1 [12] = assay: Inhibition of colony formation in mouse 4T1 cells assessed as assessed as colony forming units at 2.5 uM incubated for 7 to 10 days by crystal violet staining based microscopic method (reference value: 364 +/- 46.4 No unit); format: functional
4T1 [13] = assay: Antitumor activity against mouse 4T1 cells implanted in BALB/c mouse assessed as median number of metastases per lung at 50 mg/kg, ig administered daily post implantation (reference value: 40.5); format: functional
DU-145 = assay: Cytotoxicity against human DU145 cells incubated for 48 hrs by MTT assay; format: functional, cell-based; settings: DU-145, 48 h
A549 = assay: Cytotoxicity against human A549 cells incubated for 48 hrs by MTT assay; format: functional, cell-based; settings: A549, 48 h
4T1 [14] = assay: Inhibition of colony formation in mouse 4T1 cells assessed as colony forming units at 1.25 uM incubated for 7 to 10 days by crystal violet staining based microscopic method (reference value: 364 +/- 46.4 No unit); format: functional
4T1 [15] = assay: Cytotoxicity against mouse 4T1 cells incubated for 48 hrs by MTT assay; format: functional, cell-based; settings: 4T1, 48 h
HK-2 = assay: Cytotoxicity against human HK2 cells incubated for 48 hrs by MTT assay; format: cell-based; settings: HK-2, 48 h
[16] = Cytotoxicity against mouse MM3MG cells incubated for 48 hrs by MTT assay; format: functional, cell-based
4T1 [17] = assay: Antitumor activity against mouse 4T1 cells implanted in BALB/c mouse assessed as median number of metastases per lung at 100 mg/kg, ig administered daily post implantation (reference value: 40.5); format: functional
L02 = assay: Cytotoxicity against human L02 cells incubated for 48 hrs by MTT assay; format: cell-based; settings: L02, 48 h
HeLa = assay: Cytotoxicity against human HeLa cells incubated for 48 hrs by MTT assay; format: functional, cell-based
CT26 = assay: Cytotoxicity against mouse CT26 cells incubated for 48 hrs by MTT assay; format: functional, cell-based; settings: CT26, 48 h
[18] = system: Lewis lung carcinoma cell line; assay: Cytotoxicity against mouse LLC cells incubated for 48 hrs by MTT assay; format: functional, cell-based
[19] = Cytotoxicity against mouse Meth-A cells incubated for 48 hrs by MTT assay; format: functional, cell-based

Hepatocyte growth factor activator serine protease, sequence (Q04756 373-407 limits assumed): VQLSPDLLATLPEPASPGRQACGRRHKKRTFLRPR
Hepatocyte growth factor activator serine protease, sequence (Q04756 408-655 limits assumed): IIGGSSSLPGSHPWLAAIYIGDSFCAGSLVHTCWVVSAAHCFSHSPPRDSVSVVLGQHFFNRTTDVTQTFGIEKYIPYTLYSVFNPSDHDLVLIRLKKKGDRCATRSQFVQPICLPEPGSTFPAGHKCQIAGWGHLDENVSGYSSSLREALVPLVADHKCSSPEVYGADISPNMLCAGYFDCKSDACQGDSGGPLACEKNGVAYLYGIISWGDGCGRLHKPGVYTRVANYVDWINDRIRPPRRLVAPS
Suppressor of tumorigenicity 14 protein, sequence (Q9Y5Y6 whole entry): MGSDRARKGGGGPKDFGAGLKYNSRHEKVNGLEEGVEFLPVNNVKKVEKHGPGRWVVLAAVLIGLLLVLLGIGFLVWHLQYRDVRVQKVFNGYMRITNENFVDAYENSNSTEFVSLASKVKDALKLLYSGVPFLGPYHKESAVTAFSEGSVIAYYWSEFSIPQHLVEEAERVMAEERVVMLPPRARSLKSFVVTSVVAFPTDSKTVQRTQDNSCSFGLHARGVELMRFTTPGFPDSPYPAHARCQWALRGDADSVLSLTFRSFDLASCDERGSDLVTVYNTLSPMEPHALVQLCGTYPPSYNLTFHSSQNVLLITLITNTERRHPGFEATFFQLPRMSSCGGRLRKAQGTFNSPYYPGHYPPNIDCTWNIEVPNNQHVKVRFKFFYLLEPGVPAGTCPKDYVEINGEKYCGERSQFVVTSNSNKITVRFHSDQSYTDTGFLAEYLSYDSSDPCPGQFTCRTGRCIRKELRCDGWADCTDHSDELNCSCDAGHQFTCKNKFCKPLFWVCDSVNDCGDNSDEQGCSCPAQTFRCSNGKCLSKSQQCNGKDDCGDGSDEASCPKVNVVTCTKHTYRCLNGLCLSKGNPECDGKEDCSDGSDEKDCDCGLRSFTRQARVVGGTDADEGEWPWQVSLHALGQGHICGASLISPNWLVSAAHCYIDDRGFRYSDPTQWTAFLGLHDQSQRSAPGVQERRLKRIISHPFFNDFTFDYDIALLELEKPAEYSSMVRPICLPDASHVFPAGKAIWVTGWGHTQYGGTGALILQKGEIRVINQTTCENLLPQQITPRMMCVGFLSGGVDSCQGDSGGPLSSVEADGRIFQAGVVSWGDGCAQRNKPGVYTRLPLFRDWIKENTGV
Coagulation factor X, sequence (P00742 41-179 limits assumed): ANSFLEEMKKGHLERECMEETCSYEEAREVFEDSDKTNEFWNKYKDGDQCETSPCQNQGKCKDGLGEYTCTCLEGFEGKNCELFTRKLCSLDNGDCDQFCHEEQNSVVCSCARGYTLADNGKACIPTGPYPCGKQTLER
Coagulation factor X, sequence (P00742 235-488 limits assumed): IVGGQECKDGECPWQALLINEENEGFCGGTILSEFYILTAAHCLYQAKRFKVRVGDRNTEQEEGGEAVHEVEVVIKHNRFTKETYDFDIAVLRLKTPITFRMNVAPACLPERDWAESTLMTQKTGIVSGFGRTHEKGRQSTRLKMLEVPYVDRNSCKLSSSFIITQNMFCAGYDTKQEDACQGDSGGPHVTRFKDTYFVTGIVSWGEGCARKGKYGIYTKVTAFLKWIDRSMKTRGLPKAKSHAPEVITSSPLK
Serine protease hepsin, sequence (P05981 1-162 limits assumed): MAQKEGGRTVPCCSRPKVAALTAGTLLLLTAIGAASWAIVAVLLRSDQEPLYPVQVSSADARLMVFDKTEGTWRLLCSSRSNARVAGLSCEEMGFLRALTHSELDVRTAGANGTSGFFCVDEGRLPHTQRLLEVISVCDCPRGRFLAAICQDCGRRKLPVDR
Serine protease hepsin, sequence (P05981 163-417 limits assumed): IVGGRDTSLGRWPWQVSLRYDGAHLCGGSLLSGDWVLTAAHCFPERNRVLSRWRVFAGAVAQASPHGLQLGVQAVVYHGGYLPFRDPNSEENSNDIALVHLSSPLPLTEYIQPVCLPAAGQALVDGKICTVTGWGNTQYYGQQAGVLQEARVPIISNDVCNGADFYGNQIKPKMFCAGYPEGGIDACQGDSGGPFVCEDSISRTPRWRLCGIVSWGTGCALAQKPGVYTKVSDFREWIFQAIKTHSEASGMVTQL
Epidermal growth factor receptor (Homo sapiens), sequence (P00533 whole entry): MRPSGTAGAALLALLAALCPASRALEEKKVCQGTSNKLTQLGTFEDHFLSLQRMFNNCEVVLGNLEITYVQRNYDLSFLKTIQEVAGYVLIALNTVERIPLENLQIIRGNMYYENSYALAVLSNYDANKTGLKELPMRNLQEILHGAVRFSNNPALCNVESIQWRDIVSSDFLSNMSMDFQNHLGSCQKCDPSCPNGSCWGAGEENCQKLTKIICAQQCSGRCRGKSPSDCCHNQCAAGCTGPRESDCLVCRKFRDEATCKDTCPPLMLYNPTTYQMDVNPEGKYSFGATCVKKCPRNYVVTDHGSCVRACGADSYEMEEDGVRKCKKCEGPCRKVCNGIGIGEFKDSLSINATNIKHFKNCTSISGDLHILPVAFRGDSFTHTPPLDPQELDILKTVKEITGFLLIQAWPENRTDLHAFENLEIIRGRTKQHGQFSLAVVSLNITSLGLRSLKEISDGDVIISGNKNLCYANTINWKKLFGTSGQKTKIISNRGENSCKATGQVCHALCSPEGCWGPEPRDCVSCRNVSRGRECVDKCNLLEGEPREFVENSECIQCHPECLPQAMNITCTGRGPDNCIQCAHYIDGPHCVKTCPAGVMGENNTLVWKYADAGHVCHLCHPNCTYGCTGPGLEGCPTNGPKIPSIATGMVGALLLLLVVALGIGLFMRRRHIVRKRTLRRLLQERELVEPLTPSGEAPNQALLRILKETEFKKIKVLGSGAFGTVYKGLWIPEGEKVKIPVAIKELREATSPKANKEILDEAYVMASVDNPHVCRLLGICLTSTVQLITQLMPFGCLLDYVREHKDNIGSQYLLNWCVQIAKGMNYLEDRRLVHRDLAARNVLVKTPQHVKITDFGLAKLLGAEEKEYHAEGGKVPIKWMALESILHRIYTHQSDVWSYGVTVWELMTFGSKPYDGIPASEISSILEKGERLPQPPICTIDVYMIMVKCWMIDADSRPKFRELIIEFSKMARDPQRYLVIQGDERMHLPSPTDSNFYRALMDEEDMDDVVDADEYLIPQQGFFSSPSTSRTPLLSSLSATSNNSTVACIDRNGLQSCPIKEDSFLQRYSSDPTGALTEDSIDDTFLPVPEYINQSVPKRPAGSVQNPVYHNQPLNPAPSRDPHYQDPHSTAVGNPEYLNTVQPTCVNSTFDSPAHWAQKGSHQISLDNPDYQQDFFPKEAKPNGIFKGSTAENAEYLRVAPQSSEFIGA
Proto-oncogene tyrosine-protein kinase Src, sequence (P12931 2-536 limits assumed): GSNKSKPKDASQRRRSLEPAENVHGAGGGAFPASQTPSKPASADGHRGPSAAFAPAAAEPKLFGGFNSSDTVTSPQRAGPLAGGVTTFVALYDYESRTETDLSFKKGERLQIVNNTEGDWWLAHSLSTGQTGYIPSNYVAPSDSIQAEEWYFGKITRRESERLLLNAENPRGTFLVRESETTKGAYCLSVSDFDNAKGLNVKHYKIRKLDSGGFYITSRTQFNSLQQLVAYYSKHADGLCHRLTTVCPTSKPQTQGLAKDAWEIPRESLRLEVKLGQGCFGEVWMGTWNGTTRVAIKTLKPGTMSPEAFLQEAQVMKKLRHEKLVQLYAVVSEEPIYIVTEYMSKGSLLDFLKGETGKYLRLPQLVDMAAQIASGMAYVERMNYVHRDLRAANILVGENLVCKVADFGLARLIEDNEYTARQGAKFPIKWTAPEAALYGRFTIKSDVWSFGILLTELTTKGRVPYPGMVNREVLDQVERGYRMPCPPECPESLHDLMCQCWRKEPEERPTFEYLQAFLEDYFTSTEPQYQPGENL
Histone deacetylase 1, sequence (Q13547 whole entry): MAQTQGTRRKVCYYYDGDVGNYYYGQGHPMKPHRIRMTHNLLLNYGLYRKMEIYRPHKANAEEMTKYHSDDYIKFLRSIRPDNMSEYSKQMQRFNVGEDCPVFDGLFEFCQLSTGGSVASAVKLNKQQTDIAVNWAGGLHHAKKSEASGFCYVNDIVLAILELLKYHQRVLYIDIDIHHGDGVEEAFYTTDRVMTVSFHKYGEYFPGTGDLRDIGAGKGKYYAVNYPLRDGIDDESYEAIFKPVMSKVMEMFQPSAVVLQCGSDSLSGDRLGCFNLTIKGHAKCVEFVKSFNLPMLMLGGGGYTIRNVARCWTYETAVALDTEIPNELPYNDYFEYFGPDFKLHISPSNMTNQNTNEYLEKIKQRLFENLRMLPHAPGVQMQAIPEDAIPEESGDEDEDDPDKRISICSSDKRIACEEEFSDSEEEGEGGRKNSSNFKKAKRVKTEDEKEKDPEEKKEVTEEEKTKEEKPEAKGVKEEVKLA

COc1ccc2c(c1)sc1nc(CCC(=O)c3ccc(OC)c(O)c3)cn12
IC50 (MDA-MB-231 [1]): 1300 nM
inhibition (Tubulin (Homo sapiens)): 59.2%

O=c1[nH]cc(F)c(=O)[nH]1 [FLUOROURACIL]
IC50 (PANC-1): 62300 nM
IC50 (Capan-2): 54200 nM
IC50 (MIA PaCa-2): 24300 nM
IC50 (CFPAC-1): 41200 nM

C/C1=C/C(=O)O[C@@H]2C[C@@H](CC[C@H](C)/C=C\C=C\CC1)O[C@@](O)([C@@H]1CSC(=O)N1)C2 [LATRUNCULIN A]
inhibition at 0.1 µg/mL (NIH3T3 [2]): > 95%
Activity (MDA-MB-231 [3]): <50%
inhibition at 0.1 µg/mL (NIH3T3 [4]): > 95%

Nc1ccn([C@@H]2O[C@H](CO)[C@@H](O)C2(F)F)c(=O)n1 [GEMCITABINE]
IC50 (PANC-1): 11000 nM
IC50 (Capan-2): 40800 nM
IC50 (MIA PaCa-2): 16 nM
IC50 (CFPAC-1): 22 nM

Cc1nc(Nc2ncc(-c3ccccc3)s2)cc(N2CCN(CCO)CC2)n1
IC50 [5]: 97 nM

C/C(=N\NC1SC=C(c2ccc3ccccc3c2)N1C)c1ccccn1 (configuration not stated)
CC50 (HT-29): 57800 nM
CC50 (Jurkat): 16200 nM

CN(C)C(=S)NN=C(c1ccccn1)c1ccccn1
IC50 (PANC-1): 4 nM
IC50 (Capan-2): 1 nM
IC50 (MIA PaCa-2): 1 nM
IC50 (CFPAC-1): 200 nM

COC(=O)Nc1nc2cc(C(=O)c3cccs3)ccc2[nH]1
inhibition (Tubulin (Homo sapiens)): 58.3%

O=C(CCCOc1ccc(N2C(=O)CSC2c2ccc(Br)s2)cc1)NO (configuration not stated)
IC50 (Histone deacetylase 1): 73 nM

O=C(CN1CCN(c2nc3ccccc3s2)CC1)NNC(=O)c1ccc(Br)cc1
IC50 [6]: 23000 nM
IC50 [7]: 22600 nM
IC50 [8]: 25000 nM

CC[C@H](NC(C)=O)C(=O)N[C@@H](CCCN)C(=O)N[C@@H](CC(C)C)C(=O)N[C@@H](CCCNC(=N)N)C(=O)c1nc2ccc(C(=O)NC3CCNCC3)cc2s1
Ki [9]: 7.2 nM
Ki [10]: 1.3 nM
Ki (Serine protease hepsin): 0.27 nM
Ki (Prothrombin): 2950 nM
Ki (Coagulation factor X): 447 nM

NC(=S)N/N=C/c1ncccc1N [TRIAPINE]
IC50 (L1210): 1300 nM

COc1ccc(C(=O)CCc2cn3c(n2)sc2ccccc23)cc1
IC50 (MDA-MB-231 [1]): 1200 nM
inhibition (Tubulin (Homo sapiens)): 61.4%

O=C1c2ccccc2C(=O)N1C/C=N\N=c1\scc(-c2cccc([N+](=O)[O-])c2)n1-c1ccccc1
CC50 (HT-29): 21300 nM
CC50 (Jurkat): 21200 nM

Clc1ccc(/C=N\Nc2ccc(-c3nc4ccccc4s3)cc2)cc1
inhibition [11]: 47.3%
IC50 (HepG2): 27 nM

CC/C(=N\Nc1nc(-c2ccc(OC)cc2)cs1)c1cccc(Br)c1
CC50 (HT-29): 62000 nM
CC50 (Jurkat): 114000 nM

COc1ccccc1C(=O)Nc1ccc2nc(SCC(=O)NCc3ccc(Cl)cc3)sc2c1
IC50 (B16): 5600 nM
Activity (4T1 [12]): 56 CFU
Activity (4T1 [13]): 19.5
IC50 (DU-145): 1900 nM
IC50 (A549): 2400 nM
Activity (4T1 [14]): 189 CFU
IC50 (4T1 [15]): 1200 nM
IC50 (HK-2): > 40000 nM
IC50 [16]: > 40000 nM
Activity (4T1 [17]): 6
IC50 (L02): > 40000 nM
IC50 (HeLa): 4300 nM
IC50 (CT26): 4300 nM
IC50 [18]: 6500 nM
IC50 [19]: 12300 nM

CN(C(=S)NN=C(c1ccccn1)c1ccccn1)C1CCCCC1
IC50 (PANC-1): 30 nM
IC50 (Capan-2): 20 nM
IC50 (MIA PaCa-2): 5 nM
IC50 (CFPAC-1): 203 nM

CC(=O)N[C@@H](CCCCN)C(=O)N[C@@H](CCCNC(=N)N)C(=O)N[C@@H](CC(C)C)C(=O)N[C@@H](CCCNC(=N)N)C(=O)c1nc2ccc(C(=O)NCc3ccc(C(=O)O)cc3)cc2s1
Ki [9]: 3.7 nM
Ki [10]: 2.5 nM
Ki (Serine protease hepsin): 0.67 nM
Ki (Coagulation factor X): 29 nM

From ChEMBL document CHEMBL4346675, “Multi-target compounds acting in cancer progression: Focus on thiosemicarbazone, thiazole and thiazolidinone analogues” (Eur J Med Chem, 2019)
